The target of assay [1] is DNA dC->dU-editing enzyme APOBEC-3A (Homo sapiens, UniProt P31941). Kind of assay: Dose Response confirmation of small molecule APOBEC3A DNA Deaminase Inhibitors via a fluorescence-based single-stranded DNA deaminase assay. [Related pubchem assays (depositor defined):AID493011, AID493024]. The assay is classed as functional.
Assay [2] concerns the target DNA dC->dU-editing enzyme APOBEC-3G (Homo sapiens, UniProt Q9HC16). The assay is classed as functional.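 Further: Dose-response counterscreen measuring inhibition of APOBEC3G DNA deaminase activity, run while confirming APOBEC3A inhibitors.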
A short description of assay [3]: THP-1 cell cytotoxicity, dose response, cytotoxicity control for non-replicating M. tuberculosis project (AID 489025). The format is functional.
Assay [4] is described as follows: HepG2 cell cytotoxicity, dose response, cytotoxicity control for non-replicating M. tuberculosis project (AID 489018). The assay is classed as functional. Conditions: Mycobacterium tuberculosis.
The target in assay [5] is T1, Ubiquitin-conjugating enzyme E2 N (Homo sapiens, UniProt P61088).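 Further: Dose-response confirmation in a TR-FRET assay detecting UBC13-driven polyubiquitin chain formation, inhibition measured.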
T1 sequence (P61088 whole entry): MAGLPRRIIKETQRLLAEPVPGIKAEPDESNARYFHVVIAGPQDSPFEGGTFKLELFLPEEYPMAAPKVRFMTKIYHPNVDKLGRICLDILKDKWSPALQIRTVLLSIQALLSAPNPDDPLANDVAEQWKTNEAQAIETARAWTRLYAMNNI
The format is functional.

The nature of assay [6]: Vero E6 cell cytotoxicity, dose response, cytotoxicity control for non-replicating M. tuberculosis project, secondary assay (AID 492998). The assay is classed as functional, VeroE6. Conditions: Vero C1008.
Assay [7] deals with T2, Microphthalmia-associated transcription factor (Homo sapiens, UniProt O75030).
T2 sequence (O75030 whole entry): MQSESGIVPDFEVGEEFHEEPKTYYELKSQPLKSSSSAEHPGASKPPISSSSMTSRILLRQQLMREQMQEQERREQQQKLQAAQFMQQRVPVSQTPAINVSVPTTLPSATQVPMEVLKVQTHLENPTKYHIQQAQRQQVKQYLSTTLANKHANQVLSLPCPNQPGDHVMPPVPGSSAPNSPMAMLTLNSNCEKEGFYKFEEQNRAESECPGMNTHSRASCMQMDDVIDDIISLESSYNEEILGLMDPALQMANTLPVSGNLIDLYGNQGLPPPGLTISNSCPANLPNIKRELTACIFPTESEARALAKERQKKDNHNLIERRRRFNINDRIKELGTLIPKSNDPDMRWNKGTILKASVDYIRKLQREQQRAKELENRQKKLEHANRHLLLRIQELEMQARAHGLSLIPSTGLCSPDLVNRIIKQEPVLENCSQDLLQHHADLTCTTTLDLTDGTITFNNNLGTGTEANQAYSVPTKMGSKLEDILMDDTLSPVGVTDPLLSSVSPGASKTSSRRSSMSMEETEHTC
Kind of assay: reducers of TRPM1 reporter luminescence, concentration series – cell-based, SK-MEL-5, cherry-picked, set 3, MITF inhibitor project, dose response (AID 493073).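 Further: SK-MEL-5 melanoma cells with luciferase driven by the MITF target TRPM1 promoter.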 The format is functional.

The nature of a further assay: cells. The assay is classed as functional.
For the next assay, the system named is A-375. The experiment in a line: proliferation inhibition in MITF-low A375 cells – cell-based, cherry-pick samples, set 2, counter-screen for MITF modulator project, dose response (AID 540335). The following applies: Homo sapiens. The format is functional. On the technique in general: A counterscreen serves to expose hits that act by an unwanted route or on another target.

Assay [8] is described as follows: cytotoxicity toward MDA-MB-231 breast cancer cells – cell-based, CellTiter-Glo luminescence, cherry-pick, cytotoxicity control for RAD54 inhibitor project, dose response (AID 651692). The assay is classed as functional. Background: In ATP-based viability assays light output follows the ATP content of the culture.
The target in assay [9] is T3, DNA repair and recombination protein RAD54-like (Homo sapiens, UniProt Q92698).
T3 sequence (Q92698 whole entry): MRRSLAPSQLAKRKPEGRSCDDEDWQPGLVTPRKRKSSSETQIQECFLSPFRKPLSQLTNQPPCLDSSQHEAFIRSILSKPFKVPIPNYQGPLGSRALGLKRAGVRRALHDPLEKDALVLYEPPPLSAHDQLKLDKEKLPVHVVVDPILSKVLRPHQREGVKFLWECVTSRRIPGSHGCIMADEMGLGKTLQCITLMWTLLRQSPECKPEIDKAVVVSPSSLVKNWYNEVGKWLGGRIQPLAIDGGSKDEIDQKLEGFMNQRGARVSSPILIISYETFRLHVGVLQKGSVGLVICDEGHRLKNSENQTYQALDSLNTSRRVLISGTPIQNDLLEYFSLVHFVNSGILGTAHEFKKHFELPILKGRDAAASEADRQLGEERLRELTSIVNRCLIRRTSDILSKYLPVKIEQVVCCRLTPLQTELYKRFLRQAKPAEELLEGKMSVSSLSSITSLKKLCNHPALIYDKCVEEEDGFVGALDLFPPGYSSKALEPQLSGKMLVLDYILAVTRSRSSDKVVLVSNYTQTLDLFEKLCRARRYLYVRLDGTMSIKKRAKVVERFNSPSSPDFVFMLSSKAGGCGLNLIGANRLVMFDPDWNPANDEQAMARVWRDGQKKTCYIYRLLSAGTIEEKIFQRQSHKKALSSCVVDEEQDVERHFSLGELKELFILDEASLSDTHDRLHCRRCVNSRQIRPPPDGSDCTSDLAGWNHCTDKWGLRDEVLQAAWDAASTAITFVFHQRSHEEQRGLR
Kind of assay: RAD54 Holliday junction migration blockers – biochemical, fluorescence, cherry-picked samples, dose series, confirmation (AID 651657). The format is functional.

Assay [10] addresses SWI/SNF-related matrix-associated actin-dependent regulator of chromatin subfamily A member 2 (Homo sapiens, UniProt P51531). Kind of assay: Luminescence-based cell-based high throughput dose response assay to identify activators of the function of SWI/SNF related, matrix associated, actin dependent regulator of chromatin, subfamily a, member 2 (SMARCA2, BRM). The assay is classed as functional.

A short description of assay [11]: Counterscreen for activators of the function of SWI/SNF related, matrix associated, actin dependent regulator of chromatin, subfamily a, member 2 (SMARCA2, BRM): Luminescence-based cell-based high throughput dose response assay to identify non-selective compounds using the VP16 reporter assay. The assay is classed as functional.
A further assay has as its target Prothrombin (Homo sapiens, UniProt P00734). The experiment in a line: Thrombin 1536 HTS Dose Response Confirmation. [Related pubchem assays: 1046 (Thrombin 1536 HTS; hits were confirmed in this assay)]. The assay is classed as functional.
Assay [12] addresses DNA damage-inducible transcript 3 protein (Mus musculus, UniProt P35639). The assay is classed as functional, Cricetulus griseus.
Assay [13] addresses T4, Replicative DNA helicase DnaB (Mycobacterium tuberculosis, UniProt P9WMR3).
T4 sequence (P9WMR3 whole entry): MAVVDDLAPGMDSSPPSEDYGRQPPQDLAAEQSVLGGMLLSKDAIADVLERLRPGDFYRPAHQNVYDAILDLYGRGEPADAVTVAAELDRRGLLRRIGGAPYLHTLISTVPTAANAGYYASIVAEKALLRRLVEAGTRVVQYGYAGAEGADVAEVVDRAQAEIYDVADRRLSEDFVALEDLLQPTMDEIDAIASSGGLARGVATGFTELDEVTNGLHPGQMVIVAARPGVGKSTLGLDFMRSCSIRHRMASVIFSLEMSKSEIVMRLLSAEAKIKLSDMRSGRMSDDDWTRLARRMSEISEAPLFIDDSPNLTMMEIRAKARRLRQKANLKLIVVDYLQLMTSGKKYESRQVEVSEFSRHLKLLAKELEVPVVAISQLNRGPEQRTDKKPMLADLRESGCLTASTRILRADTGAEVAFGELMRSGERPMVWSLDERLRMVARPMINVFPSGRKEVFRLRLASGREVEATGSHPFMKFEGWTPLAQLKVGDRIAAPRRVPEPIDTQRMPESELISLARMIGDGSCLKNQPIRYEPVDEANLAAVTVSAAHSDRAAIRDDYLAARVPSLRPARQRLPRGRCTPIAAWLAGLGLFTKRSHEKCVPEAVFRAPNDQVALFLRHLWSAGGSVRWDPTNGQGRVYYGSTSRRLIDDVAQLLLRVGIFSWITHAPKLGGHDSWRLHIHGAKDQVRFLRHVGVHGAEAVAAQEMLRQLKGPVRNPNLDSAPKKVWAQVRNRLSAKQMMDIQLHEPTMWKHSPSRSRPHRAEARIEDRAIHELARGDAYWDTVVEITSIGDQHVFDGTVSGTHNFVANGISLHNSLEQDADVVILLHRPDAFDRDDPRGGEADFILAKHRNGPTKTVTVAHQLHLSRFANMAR
The experiment in a line: DnaB intein splicing inhibitors, dose response, biochemical, cell-free fluorescence (AID 449749). The format is functional.

The next assay deals with T5, Protein RecA (Mycobacterium tuberculosis, UniProt P9WHJ3).
T5 sequence (P9WHJ3 whole entry): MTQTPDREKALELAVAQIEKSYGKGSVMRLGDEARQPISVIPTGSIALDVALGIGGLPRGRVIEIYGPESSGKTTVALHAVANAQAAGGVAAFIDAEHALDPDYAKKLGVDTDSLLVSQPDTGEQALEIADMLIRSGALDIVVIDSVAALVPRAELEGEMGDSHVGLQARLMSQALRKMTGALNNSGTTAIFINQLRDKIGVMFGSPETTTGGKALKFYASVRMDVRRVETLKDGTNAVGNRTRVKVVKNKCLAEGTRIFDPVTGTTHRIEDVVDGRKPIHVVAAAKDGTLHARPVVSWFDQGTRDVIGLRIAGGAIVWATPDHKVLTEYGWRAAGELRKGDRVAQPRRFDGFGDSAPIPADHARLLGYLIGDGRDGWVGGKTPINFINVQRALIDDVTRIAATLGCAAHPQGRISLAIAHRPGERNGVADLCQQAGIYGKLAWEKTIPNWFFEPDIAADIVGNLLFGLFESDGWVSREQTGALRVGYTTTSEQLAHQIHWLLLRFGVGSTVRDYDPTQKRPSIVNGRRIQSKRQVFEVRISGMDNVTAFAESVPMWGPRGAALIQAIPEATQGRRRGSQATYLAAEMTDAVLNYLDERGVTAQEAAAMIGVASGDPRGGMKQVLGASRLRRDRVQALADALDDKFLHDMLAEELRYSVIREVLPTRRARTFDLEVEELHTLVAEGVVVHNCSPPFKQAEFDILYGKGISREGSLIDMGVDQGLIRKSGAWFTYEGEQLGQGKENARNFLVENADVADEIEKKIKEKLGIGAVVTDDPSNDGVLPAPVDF
The experiment in a line: Fluorescence Cell-Free Homogeneous Dose Retest to Identify Inhibitors of RecA-Intein Splicing Activity. [Related pubchem assays (depositor defined):AID2097, AID2223, AID489010, AID492950]. The format is functional.

The next assay deals with Genome polyprotein (dengue virus type 2, UniProt P29990). The experiment in a line: flavivirus cap methylation enzyme inhibition – biochemical, confirmation dose response, primary screen (AID 588689). The assay is classed as functional.
The target of assay [14] is T6, Fatty acid synthase (Homo sapiens, UniProt P49327). The experiment in a line: inhibition of human FAS-TE enzyme activity – biochemical, endpoint fluorescence intensity, uHTS hits, dose response (AID 624327).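 Further: fluorescence from hydrolysis of an O-methyl fluorescein acyl ester substrate by the enzyme.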 The assay is classed as functional.
T6 sequence (P49327 whole entry): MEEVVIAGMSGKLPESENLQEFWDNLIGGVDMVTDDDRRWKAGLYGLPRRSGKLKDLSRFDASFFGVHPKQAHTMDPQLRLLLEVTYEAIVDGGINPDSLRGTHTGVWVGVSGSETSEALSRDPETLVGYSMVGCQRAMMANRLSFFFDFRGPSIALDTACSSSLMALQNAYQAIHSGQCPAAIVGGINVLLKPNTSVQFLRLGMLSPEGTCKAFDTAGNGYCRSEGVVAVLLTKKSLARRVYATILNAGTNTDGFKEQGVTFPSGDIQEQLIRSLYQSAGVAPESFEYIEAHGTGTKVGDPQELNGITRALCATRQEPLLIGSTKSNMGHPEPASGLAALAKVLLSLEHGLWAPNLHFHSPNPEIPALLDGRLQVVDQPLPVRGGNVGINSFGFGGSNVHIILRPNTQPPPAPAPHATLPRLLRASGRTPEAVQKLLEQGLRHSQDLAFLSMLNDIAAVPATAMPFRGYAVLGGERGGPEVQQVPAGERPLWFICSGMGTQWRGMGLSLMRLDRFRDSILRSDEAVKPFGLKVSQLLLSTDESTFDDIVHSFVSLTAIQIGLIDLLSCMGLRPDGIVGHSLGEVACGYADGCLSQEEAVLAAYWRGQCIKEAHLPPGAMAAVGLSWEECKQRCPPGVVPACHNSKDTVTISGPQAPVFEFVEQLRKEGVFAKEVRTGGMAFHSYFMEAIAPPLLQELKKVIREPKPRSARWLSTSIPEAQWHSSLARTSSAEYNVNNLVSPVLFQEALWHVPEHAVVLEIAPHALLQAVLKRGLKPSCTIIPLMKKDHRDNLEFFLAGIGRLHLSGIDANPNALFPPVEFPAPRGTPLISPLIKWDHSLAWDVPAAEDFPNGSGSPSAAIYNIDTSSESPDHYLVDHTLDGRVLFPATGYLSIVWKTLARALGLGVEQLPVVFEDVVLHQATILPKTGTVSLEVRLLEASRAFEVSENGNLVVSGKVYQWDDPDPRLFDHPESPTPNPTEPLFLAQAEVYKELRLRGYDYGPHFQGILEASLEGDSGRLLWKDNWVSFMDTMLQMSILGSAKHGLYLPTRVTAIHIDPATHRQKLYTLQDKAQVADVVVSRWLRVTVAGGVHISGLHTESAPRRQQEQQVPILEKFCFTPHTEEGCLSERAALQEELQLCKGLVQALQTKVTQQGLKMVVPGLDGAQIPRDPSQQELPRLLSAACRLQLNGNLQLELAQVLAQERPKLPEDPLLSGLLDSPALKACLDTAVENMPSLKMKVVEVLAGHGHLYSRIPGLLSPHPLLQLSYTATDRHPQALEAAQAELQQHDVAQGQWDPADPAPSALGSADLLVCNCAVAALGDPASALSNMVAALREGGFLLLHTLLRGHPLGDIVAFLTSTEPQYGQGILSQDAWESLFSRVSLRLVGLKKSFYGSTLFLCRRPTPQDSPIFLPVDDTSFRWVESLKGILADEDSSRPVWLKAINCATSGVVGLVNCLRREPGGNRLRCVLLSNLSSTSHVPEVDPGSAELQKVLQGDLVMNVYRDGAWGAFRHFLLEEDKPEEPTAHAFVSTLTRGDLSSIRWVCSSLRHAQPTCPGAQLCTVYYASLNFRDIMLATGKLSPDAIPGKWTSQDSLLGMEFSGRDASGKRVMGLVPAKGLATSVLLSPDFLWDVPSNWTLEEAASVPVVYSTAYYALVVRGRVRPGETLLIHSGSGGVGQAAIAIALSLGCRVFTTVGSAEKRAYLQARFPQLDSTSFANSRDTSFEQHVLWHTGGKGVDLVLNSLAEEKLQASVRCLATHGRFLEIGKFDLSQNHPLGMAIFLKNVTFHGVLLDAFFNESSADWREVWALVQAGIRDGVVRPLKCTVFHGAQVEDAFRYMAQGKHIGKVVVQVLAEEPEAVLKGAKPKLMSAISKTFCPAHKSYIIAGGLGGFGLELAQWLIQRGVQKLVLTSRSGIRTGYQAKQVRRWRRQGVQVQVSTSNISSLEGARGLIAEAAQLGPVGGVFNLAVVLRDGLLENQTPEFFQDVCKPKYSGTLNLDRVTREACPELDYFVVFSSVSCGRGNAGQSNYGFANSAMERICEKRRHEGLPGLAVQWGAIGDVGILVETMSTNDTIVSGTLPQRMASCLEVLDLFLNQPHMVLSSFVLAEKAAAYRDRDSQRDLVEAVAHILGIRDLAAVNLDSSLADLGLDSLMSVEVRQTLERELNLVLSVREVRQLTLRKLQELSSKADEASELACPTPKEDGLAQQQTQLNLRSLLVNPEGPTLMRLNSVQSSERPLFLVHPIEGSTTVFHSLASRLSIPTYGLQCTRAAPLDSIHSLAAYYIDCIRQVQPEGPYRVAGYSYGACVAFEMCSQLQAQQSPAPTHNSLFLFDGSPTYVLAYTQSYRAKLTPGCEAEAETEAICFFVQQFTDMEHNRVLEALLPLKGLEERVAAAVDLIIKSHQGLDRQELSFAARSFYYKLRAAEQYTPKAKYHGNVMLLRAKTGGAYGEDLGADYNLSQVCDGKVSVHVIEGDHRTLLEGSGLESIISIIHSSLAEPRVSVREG
In assay [15] the target is T6, Fatty acid synthase. The experiment in a line: inhibition of human FAS-TE enzyme activity – biochemical, kinetic fluorescence intensity, dose response (AID 624326).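 Further: rate of fluorescence rise from hydrolysis of a fluorogenic O-methyl fluorescein ester substrate.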 The assay is classed as functional.
The target of another assay is X-box-binding protein 1 (Homo sapiens, UniProt P17861). The format is functional, Cricetulus griseus.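 Further: confirmatory dose-response counter-screen serving a CHOP assay.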
In assay [16] the target is ADP-ribosylation factor GTPase-activating protein 1 (Rattus norvegicus, UniProt Q62848). Kind of assay: Fluorescence polarization-based biochemical high throughput dose response screening assay to identify inhibitors of ADP-ribosylation factor GTPase activating protein 1 (ARFGAP1). The assay is classed as functional. For orientation: Polarisation of emitted light reports the rotation of a fluorescent probe.

In assay [17] the target is Arf-GAP with SH3 domain, ANK repeat and PH domain-containing protein 1 (Homo sapiens, UniProt Q9ULH1). The format is functional.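 Further: biochemical fluorescence polarization dose–response screen measuring inhibition of ASAP1; ASAP1 GAP domain stimulating GTP hydrolysis by truncated human ARF1.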

The values that follow come from ChEMBL document CHEMBL1201862, “PubChem BioAssay data set” (2004).

The source made the active and inactive calls.

For orientation: IC50 means the concentration that inhibits the measured activity by half. What is called CC50 is the concentration giving 50% cytotoxicity. By AC50 is commonly meant the midpoint of the concentration-response curve, whichever way the signal moves. The term EC50 denotes the concentration at which the effect is half-maximal.

DNA dC->dU-editing enzyme APOBEC-3A, sequence (P31941 whole entry): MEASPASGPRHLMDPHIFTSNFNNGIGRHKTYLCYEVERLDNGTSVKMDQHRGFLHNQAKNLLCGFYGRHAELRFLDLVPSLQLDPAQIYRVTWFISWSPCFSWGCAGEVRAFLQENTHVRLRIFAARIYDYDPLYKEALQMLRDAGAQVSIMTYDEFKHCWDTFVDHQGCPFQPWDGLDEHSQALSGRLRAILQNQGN
DNA dC->dU-editing enzyme APOBEC-3G, sequence (Q9HC16 whole entry): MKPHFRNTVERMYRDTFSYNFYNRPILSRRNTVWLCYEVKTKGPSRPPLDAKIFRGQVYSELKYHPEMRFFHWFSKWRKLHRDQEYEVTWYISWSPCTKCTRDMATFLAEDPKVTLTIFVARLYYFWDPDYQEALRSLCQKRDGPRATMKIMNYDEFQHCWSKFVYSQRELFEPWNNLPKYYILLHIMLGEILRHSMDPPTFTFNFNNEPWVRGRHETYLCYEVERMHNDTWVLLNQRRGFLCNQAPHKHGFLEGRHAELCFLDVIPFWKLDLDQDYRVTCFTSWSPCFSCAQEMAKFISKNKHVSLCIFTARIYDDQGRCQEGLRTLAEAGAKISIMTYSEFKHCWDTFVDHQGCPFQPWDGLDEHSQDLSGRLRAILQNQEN
DNA damage-inducible transcript 3 protein, sequence (P35639 whole entry): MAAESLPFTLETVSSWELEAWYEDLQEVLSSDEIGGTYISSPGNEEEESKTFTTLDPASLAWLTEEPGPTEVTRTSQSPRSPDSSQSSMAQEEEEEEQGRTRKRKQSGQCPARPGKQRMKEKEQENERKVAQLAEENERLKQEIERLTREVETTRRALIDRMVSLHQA
SWI/SNF-related matrix-associated actin-dependent regulator of chromatin subfamily A member 2, sequence (P51531 whole entry): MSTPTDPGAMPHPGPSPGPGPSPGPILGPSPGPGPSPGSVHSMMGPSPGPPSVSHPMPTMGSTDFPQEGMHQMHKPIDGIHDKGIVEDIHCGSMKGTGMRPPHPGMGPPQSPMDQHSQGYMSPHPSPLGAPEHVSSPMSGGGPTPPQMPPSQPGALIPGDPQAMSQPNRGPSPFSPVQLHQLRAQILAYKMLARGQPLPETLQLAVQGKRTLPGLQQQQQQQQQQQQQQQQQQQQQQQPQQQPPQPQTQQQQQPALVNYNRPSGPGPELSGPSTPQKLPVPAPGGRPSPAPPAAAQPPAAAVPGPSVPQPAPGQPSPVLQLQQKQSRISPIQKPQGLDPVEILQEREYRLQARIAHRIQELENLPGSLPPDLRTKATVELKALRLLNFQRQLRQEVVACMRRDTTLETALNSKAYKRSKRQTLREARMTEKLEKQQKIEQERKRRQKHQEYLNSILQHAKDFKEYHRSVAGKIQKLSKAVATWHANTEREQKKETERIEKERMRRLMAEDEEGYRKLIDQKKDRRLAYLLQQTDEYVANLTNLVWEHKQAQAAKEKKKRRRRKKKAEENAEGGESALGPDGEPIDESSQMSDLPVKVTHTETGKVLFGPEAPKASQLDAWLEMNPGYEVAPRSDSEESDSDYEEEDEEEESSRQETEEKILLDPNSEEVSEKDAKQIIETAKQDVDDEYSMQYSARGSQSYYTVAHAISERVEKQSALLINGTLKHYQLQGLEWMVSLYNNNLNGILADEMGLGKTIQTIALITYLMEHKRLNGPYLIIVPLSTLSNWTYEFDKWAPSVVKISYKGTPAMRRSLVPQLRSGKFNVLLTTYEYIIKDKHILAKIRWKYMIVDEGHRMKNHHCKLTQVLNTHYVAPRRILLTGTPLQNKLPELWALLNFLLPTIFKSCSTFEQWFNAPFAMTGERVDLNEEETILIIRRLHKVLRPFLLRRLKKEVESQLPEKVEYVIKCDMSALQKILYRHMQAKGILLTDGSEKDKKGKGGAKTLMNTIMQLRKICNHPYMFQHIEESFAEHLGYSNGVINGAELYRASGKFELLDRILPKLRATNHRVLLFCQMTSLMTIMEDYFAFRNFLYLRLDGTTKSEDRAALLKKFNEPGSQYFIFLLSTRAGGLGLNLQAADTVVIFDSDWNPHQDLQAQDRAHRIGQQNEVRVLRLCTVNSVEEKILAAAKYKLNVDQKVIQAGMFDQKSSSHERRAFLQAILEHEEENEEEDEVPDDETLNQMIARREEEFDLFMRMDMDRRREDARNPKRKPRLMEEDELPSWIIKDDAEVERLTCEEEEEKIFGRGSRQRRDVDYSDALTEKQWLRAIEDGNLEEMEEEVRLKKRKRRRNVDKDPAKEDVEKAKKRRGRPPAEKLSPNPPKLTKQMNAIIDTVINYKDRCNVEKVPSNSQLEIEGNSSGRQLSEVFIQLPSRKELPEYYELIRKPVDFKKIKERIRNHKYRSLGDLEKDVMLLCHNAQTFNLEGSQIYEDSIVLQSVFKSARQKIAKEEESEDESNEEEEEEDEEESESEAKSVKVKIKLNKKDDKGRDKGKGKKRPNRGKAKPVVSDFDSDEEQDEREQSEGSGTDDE

With `CC(=O)Nc1nc(CC(C)C)cc(-c2ccco2)c1C#N`, the half-inhibitory concentration (IC50) was 4.18 µM (active) in [1] and 5.76 µM (active) in assay [2].

As to `CCOC(=O)c1c(NC(C)=O)sc2c(OCC(O)CNC(C)(C)C)c(Br)ccc12` (stereo unspecified), the cytotoxic concentration (CC50) in [3] is 12.5 µM (active); in assay [4] it was 11.9 µM (active); in assay [6] it was 7.28 µM (active). Besides, the IC50 in [5] is > 20 µM (inactive); in the assay “cells”, 10.2 µM (active). The AC50 in assay [7] is 7.72 µM (active); in the assay with A-375 it was 19.9 µM (active); in assay [8] it was 21 µM (active); in [9], 8.96 µM (active). Moreover, the EC50 in assay [10] and in assay [11] was > 91.2 µM (inactive) in each case.

As to `Cc1cc(C)c(S(=O)(=O)ON2C(=O)c3ccccc3C2=O)cc1C`, the IC50 at Prothrombin is 2.57 µM (active); on Genome polyprotein, 76.2 µM (active); on Fatty acid synthase [14] it was 0.744 µM (active); on Fatty acid synthase [15] it was 3.91 µM (active). The “Absolute IC50 (CHOP)” value in [12] was found to be 10 µM. The AC50 in [13] is > 380 µM (inactive). For the same compound, the EC50 on Protein RecA is 10.2 µM (active).

For the compound `Cn1c(=O)n(CCOc2ccc(Cl)cc2Cl)c2ccccc21`, the “Absolute IC50 (CHOP)” value in assay [12] came out at 10 µM. Also, at X-box-binding protein 1, the “Absolute IC50 (XBP1)” value turned out to be 10 µM. Besides, the IC50 in assay [16] and in assay [17] was 18.4 µM (inactive) each time.

In the case of `O=[N+]([O-])c1ccccc1/C=N/NC1=NCCN1`, the values for the half-maximal inhibitory concentration (IC50) in [1] and in [2] were 5.96 µM (active) and 6.95 µM (active), respectively.
